Assay results from patent US8008093B2, “Inhibition of Hsp27 phosphorylation for the treatment of blistering disorders” (The University of North Carolina at Chapel Hill, priority 2004, dated 2011).
“Also recorded” adds a separate entry of the source.

Columns and labels:
HSP27 = assay: PV IgG induced HSP27 phosphorylation in keratinocytes, immunoblot; conditions: preincubated 60 mins at 37° C. with inhibitor, then 25 μM PV IgG 30 mins
Description: Cells were preincubated for 60 minutes at 37° C. with the p38MAPK inhibitors SB202190 or SB203580, the protein kinase C inhibitors Calphostin C or H-7, or the phospholipase C inhibitor U-73122. PV IgG (25 μM) was then added and the cells were incubated for 30 mins at 37° C., and harvested in IEF lysis buffer. Extracts were separated on 10% SDS-PAGE gels followed by immunoblotting with anti-HSP27 and anti-phosphoHSP27 antibodies.
For inhibition studies, keratinocytes were preincubated for 60 mins at 37° C. with the p38MAPK inhibitors SB202190 (100 μM) or H-7 (10 μM), or the phospholipase C inhibitor U-73122 (4 μM), after which PV IgG was added to a final concentration of 25 μM, the cells incubated for 30 mins at 37° C., and harvested in IEF lysis buffer.

neonatal C57BL/6J mice = assay: Passive transfer PV mouse model, blister formation; format: in vivo
Source text: The passive transfer PV mouse model developed by Anhalt and Diaz (Anhalt, et al. (1992) New England Journal of Medicine 306, 1189-1196) was used to test the hypothesis that p38MAPK inhibitors can block blister formation in vivo. In this model, the IgG fraction from patients and control non-affected normal individuals was purified and passively transferred into neonatal mice (Anhalt, et al. (1992) New England Journal of Medicine 306, 1189-1196; Rock, et al. (1990) J of Clinical Investigation 85, 296-299).
For in vivo inhibitor studies, the mice were injected intradermally with PV and normal IgG (1.0 or 1.5 mg/gram body weight) as disclosed in Mascaro et al. (Clin Immunology & Immunopathology 85, 90-96 (1997)). The P38 MAPK inhibitors were administered intradermally in two doses. In the first dose, 6.25 μg SB202190 was administered two hours prior to intradermal injection of IgG. In the second dose, 6.25 μg SB202190 was mixed with PV or control IgG and injected intradermally. Each animal received a total inhibitor dose of 12.5 μg.

HSP25 = HSP25 phosphorylation in mouse skin extracts, 2D immunoblot; format: in vivo; conditions: PV IgG 1.0 mg IgG/g intradermally; SB202190 6.25 μg twice; skin biopsies after 18 hours
Description: Skin biopsies were obtained after 18 hours of treatment and extracted in IEF lysis buffer.
FIG. 7C is an autoradiogram of an immunoblot showing cell extracts (30 μg) prepared and separated in the first dimension using 7 cm pH 4-7, non-linear IPGphor strips (Amersham Biosciences, Inc.) and in the second dimension by 10% SDS-PAGE followed by immunoblotting with antibodies to murine HSP25 using methods known in the art (see Berkowitz et al. (2005) J Biol Chem 280, 23778-23784). […] P values were calculated using student's T-test.

p38MAPK = p38MAPK phosphorylation in mouse skin extracts, immunoblot; format: in vivo; conditions: PV IgG 1.0 mg IgG/g intradermally; SB202190 6.25 μg twice; skin biopsies after 18 hours
Source text: FIG. 7A is an immunoblot showing LDH control, PV IgG, and PV IgG+SB202190 first equally loaded on and separated by SDS-PAGE, transferred to PVDF, and immunoblotted with antibodies to p38MAPK, phospho-p38MAPK or lactate dehydrogenase (LDH) as a loading control. Blots were developed by ECL reaction (Amersham, Piscataway, N.J., United States of America).
FIG. 7B is a bar graph illustrating signal intensity from the ECL reaction for each band from the immunoblot of FIG. 7A, quantified with a GeneGnome™ scanner (Syngene Bio Imaging, Frederick, Md., United States of America) using GeneSnap™ software (n=3, S.D. shown by error bars).

[1] = test system: epidermal keratinocyte cell membranes; assay: Direct immunofluorescence of perilesional skin for bound PV IgG; conditions: direct immunofluorescence of mouse skin, PV IgG+SB202190 vs PV IgG
Source text: Perilesional skin biopsies were examined by direct immunofluorescence for the presence of PV IgG bound to the epidermal epithelium.

keratinocytes = assay: Keratin and actin reorganization in keratinocytes, confocal microscopy; format: cell-based, human; conditions: 25 μM PV IgG 6 hrs at 37° C.; SB202190 100 μM preincubated 60 mins
Description: FIGS. 5A-5C are data showing that PV IgG induced cytoskeletal reorganization can be prevented by inhibiting p38MAPK. […] Cells were stained with the indicated antibodies or fluorescein-phalloidin and analyzed by confocal microscopy.
At 37° C. Cells were fixed and stained with flourescein conjugated phalloidin (Molecular Probes, Eugene, Oreg., United States of America), pancytokeratin antibodies (clone AE1/AE3, Zymed, San Francisco, Calif., United States of America), or goat anti-human E-cadherin antibodies (R & D Systems, mc, Minneapolis, Minn., United States of America) as previously described (Hu et al., (2001) Experimental Nephrology 9, 156-164), followed by Cy2 and Cy3 conjugated secondary antibodies (Jackson Laboratories, West Grove, Pa., United States of America). Images were analyzed using a Leica SP2 AOBS confocal microscope (Leica, Bannockburn, Ill., United States of America) with an excitation wavelength of 488 nm and capture at 500-550 nm or an excitation wavelength of 561 nm and capture at 590-650 nm using a 63×objective with NA 1.4. Double labeled samples were checked for bleed though by turning off the longer wavelength laser and assaying for the absence of image. For 3 dimensional image reconstructions, serial sections were scanned at 0.244 μm and rendered using the program Volocity Version 3 (Improvision, Lexington, Mass., United States of America).

[2] = PV IgG intradermally, SB202190 two doses of 6.25 μg intradermally, after 18 hours
[3] = histology, PV IgG intradermally, SB202190 two doses of 6.25 μg intradermally, after 18 hours

CC1CNCCN1S(=O)(=O)c1cccc2cnccc12 (stereo not drawn) [H-7]
inhibition of PV IgG induced HSP27 phosphorylation (HSP27): No notable inhibition

Oc1ccc(-c2nc(-c3ccc(F)cc3)c(-c3ccncc3)[nH]2)cc1 [SB202190, 4-(4-Fluorophenyl)-2-(4-hydroxyphenyl)-5-(4-pyridyl)1H-imidazole]
suprabasal acantholysis leading to blister formation (neonatal C57BL/6J mice; PV IgG 1 mg IgG/g body weight, skin biopsies, hematoxylin and eosin): blocked | Nikolsky's sign (neonatal C57BL/6J mice; PV IgG 1.5 mg IgG/gram body weight intradermally, examined 18 hours later): negative Nikolsky's sign | blister development, clinically and histologically (neonatal C57BL/6J mice; PV IgG 1.0 or 1.5 mg/gram body weight intradermally, SB202190 total 12.5 μg, after 18 hours): failed to develop blisters | Numbers of Mice with Nikolsky Sign: Nikolsky Negative (neonatal C57BL/6J mice; [2]): 11 | Numbers of Mice with Nikolsky Sign: Nikolsky Positive (neonatal C57BL/6J mice; [2]): 1 | Numbers of Mice with Suprabasilar Acantholysis: Blisters Present (neonatal C57BL/6J mice; [3]): 1 | Numbers of Mice with Suprabasilar Acantholysis: No Blisters (neonatal C57BL/6J mice; [3]): 11 | phosphorylation of the most negatively charged HSP25 isoform in skin extracts (HSP25): inhibited; also recorded: blocked | p38MAPK phosphorylation in skin extracts (p38MAPK): prevented; also recorded: blocked | effect on binding of PV autoantibodies to epidermal keratinocyte cell surface [1]: did not prevent or alter the binding; also recorded: does not prevent binding | actin reorganization (phalloidin staining) (keratinocytes): similarly prevented; also recorded: inhibited | keratin filament retraction (keratinocytes): prevented

COc1ccc2c(c1)CC[C@@H]1[C@@H]2CC[C@]2(C)[C@@H](NCCCCCCN3C(=O)C=CC3=O)CC[C@@H]12 [U-73122]
inhibition of PV IgG induced HSP27 phosphorylation (HSP27): No notable inhibition

Calphostin C
inhibition of PV IgG induced HSP27 phosphorylation (HSP27): No notable inhibition
